In brackets after ≈: the same amount, converted by molar mass.

The nature of data set [1]: Metabolic stability of the compound in rat liver microsomes at 1 umol/L by HPLC-MS/MS analysis. It is filed as ADME, Microsome. As to conditions: dose 1 µmol/L, read-out: Stability. A general note: Liver microsomes are a subcellular fraction often used to study metabolism.
The nature of data set [2]: Aqueous solubility of the compound at 125 ug/ml measured after 24 hrs at pH 6.8 by LC-UV analysis. It is filed as physicochemical. The settings on record: for solubility at 24 h: aqueous medium, pH 6.8, dose 125 µg/ml; for solubility: buffer, pH 6.8, 24 h, dose 125 µg/ml.
Data set [3] in a line: Metabolic stability of the compound in mouse liver microsomes at 1 umol/L by HPLC-MS/MS analysis. Format: ADME, Microsome. As to conditions: dose 1 µmol/L, read-out: Stability.
A short description of data set [4]: Aqueous solubility of the compound at 125 ug/ml measured after 24 hrs at pH 4.5 by LC-UV analysis. As to conditions: for solubility at 24 h: aqueous medium, pH 4.5, dose 125 µg/ml; for solubility: buffer, pH 4.5, 24 h, dose 125 µg/ml. It is filed as physicochemical.
The nature of data set [5]: Metabolic stability of the compound in human liver microsomes at 1 umol/L by HPLC-MS/MS analysis. It is filed as ADME, Microsome. The settings on record: dose 1 µmol/L, read-out: Stability.
The nature of data set [6]: Stability of the compound in 1:1 acetonitrile/water at 125 ug/ml measured after 24 hrs by LC-UV analysis. Format: physicochemical. The settings on record: buffer, at 125 µg/mL.

Turning to `Cc1sc2c(c1C)C(c1ccc(Cl)cc1)=N[C@@H](CC(=O)NCCNc1ccc(Cc3ccc4c(c3)CN(C3CCC(=O)NC3=O)C4=O)cc1)c1nnc(C)n1-2` (stereo partly specified), the remaining at 1 µM in data set [1] was determined as 42%; in data set [3] it was 55%; in data set [5] it was 86%. Besides, the solubility at 24 h in data set [2] is 1 µg/mL (≈ 1.29 µM); in data set [4], 3 µg/mL (≈ 3.87 µM).

Consider `Cc1sc2c(c1C)C(c1ccc(Cl)cc1)=N[C@@H](CC(=O)NCCCCCNc1ccc(Cc3ccc4c(c3)CN(C3CCC(=O)NC3=O)C4=O)cc1)c1nnc(C)n1-2` (stereo partly specified), for which the remaining at 1 µM in data set [1] was 58%; in data set [3] it was 76%; in data set [5], > 88%. Further, the solubility in data set [2] is < 1 µM. In data set [4], the solubility at 24 h is 6 µg/mL (≈ 7.34 µM).

With `Cc1sc2c(c1C)C(c1ccc(Cl)cc1)=N[C@@H](CC(=O)NCCCCCCN1CCC(c3ccc4c(c3)CN(C3CCC(=O)NC3=O)C4=O)CC1)c1nnc(C)n1-2` (stereo partly specified), the remaining at 1 µM in data set [1] was < 23%; in data set [3] it was < 24%; in data set [5], 53%. For the same compound, the solubility in data set [2] is > 182 µM; in data set [4] it was > 197 µM.

For `Cc1sc2c(c1C)C(c1ccc(Cl)cc1)=N[C@@H](CC(=O)NCCCCCN1CCC(c3ccc4c(c3)CN(C3CCC(=O)NC3=O)C4=O)CC1)c1nnc(C)n1-2` (stereo partly specified), the values for the remaining at 1 µM in data set [1], in data set [3] and in data set [5] were < 23%, 27% and 54%, respectively. Further, the solubility in data set [2] was > 178 µM; in data set [4] it was > 191 µM.

Consider `Cc1sc2c(c1C)C(c1ccc(Cl)cc1)=N[C@@H](CC(=O)NCCCCN1CCC(c3ccc4c(c3)CN(C3CCC(=O)NC3=O)C4=O)CC1)c1nnc(C)n1-2` (stereo partly specified), for which the remaining at 1 µM in data set [1] was < 23%; in data set [3], < 24%; in data set [5], 66%. In addition, the solubility in data set [2] is > 175 µM; in data set [4], > 189 µM.

`Cc1sc2c(c1C)C(c1ccc(Cl)cc1)=N[C@@H](CC(=O)NCCN1CCC3(CCC(c4ccc5c(c4)CN(C4CCC(=O)NC4=O)C5=O)CC3)CC1)c1nnc(C)n1-2` (stereo partly specified): the remaining at 1 µM was found to be 33% in data set [1], 44% in data set [3] and 56% in data set [5]. The solubility at 24 h in data set [2] was 161 µg/mL (≈ 196 µM). Further, the solubility in data set [4] was > 190 µM.

Take `Cc1sc2c(c1C)C(c1ccc(Cl)cc1)=N[C@@H](CC(=O)NCCN1CC3(CCC(c4ccc5c(c4)CN(C4CCC(=O)NC4=O)C5=O)CC3)C1)c1nnc(C)n1-2` (stereo partly specified): the remaining at 1 µM was < 23% in data set [1], 33% in data set [3] and 60% in data set [5]. Besides, the concentration in solution in data set [2] (solubility at 24 h) came to 101 µg/mL (≈ 127 µM). In data set [4], the solubility is > 190 µM.

Turning to `Cc1sc2c(c1C)C(c1ccc(Cl)cc1)=N[C@@H](CC(=O)NCCN1CCC(c3ccc4c(c3)CN(C3CCC(=O)NC3=O)C4=O)CC1)c1nnc(C)n1-2` (stereo partly specified), the values for the remaining at 1 µM in data set [1], in data set [3] and in data set [5] were 40%, 25% and 68%, respectively. Also, the figures for the solubility in data set [2] and in data set [4] were > 162 µM and > 177 µM, respectively.

As for `Cc1sc2c(c1C)C(c1ccc(Cl)cc1)=N[C@@H](CC(=O)NCCCCCCNc1ccc(Cc3ccc4c(c3)CN(C3CCC(=O)NC3=O)C4=O)cc1)c1nnc(C)n1-2` (stereo partly specified), the remaining at 1 µM in data set [1] is 66%; in data set [3], 83%; in data set [5] it was > 88%. In data set [2], the solubility is < 1 µM. The solubility at 24 h in data set [4] was 3 µg/mL (≈ 3.61 µM).

With `Cc1sc2c(c1C)C(c1ccc(Cl)cc1)=N[C@@H](CC(=O)NCCCNc1ccc(Cc3ccc4c(c3)CN(C3CCC(=O)NC3=O)C4=O)cc1)c1nnc(C)n1-2` (stereo partly specified), the remaining at 1 µM in data set [1] is 48%; in data set [3], 70%; in data set [5] it was > 88%. Further, the figures for the solubility at 24 h in data set [2] and in data set [4] were 4 µg/mL (≈ 5.07 µM) and 14 µg/mL (≈ 17.7 µM), respectively.

`Cc1sc2c(c1C)C(c1ccc(Cl)cc1)=N[C@@H](CC(=O)Nc1ccc(Cc3ccc4c(c3)CN(C3CCC(=O)NC3=O)C4=O)cc1)c1nnc(C)n1-2` (stereo partly specified): the remaining at 1 µM in data set [1] worked out at 64%; in data set [3], 25%; in data set [5], 37%. Also, the solubility in data set [2] and in data set [4] was < 1 µM throughout.

In the case of `Cc1sc2c(c1C)C(c1ccc(Cl)cc1)=N[C@@H](CC(=O)N1CCC(c3ccc4c(c3)CN(C3CCC(=O)NC3=O)C4=O)CC1)c1nnc(C)n1-2` (stereo partly specified), the remaining at 1 µM in data set [1] was determined as 34%; in data set [3], 51%; in data set [5], 67%. Moreover, the solubility at 24 h was 26 µg/mL (≈ 36.6 µM) in data set [2] and 36 µg/mL (≈ 50.7 µM) in data set [4].

As to `Cc1sc2c(c1C)C(c1ccc(Cl)cc1)=N[C@@H](CC(=O)NCCCCNc1ccc(Cc3ccc4c(c3)CN(C3CCC(=O)NC3=O)C4=O)cc1)c1nnc(C)n1-2` (stereo partly specified), the remaining at 1 µM in data set [1] is 62%; in data set [3], 77%; in data set [5], > 88%. The solubility in data set [2] is < 1 µM. The same compound displayed a solubility at 24 h in data set [4] of 4 µg/mL (≈ 4.98 µM).

Regarding `Cc1sc2c(c1C)C(c1ccc(Cl)cc1)=N[C@@H](CC(=O)NCCN1CC(N3CCC(c4ccc5c(c4)CN(C4CCC(=O)NC4=O)C5=O)CC3)C1)c1nnc(C)n1-2` (stereo partly specified), the remaining at 1 µM was < 23% in data set [1], 25% in data set [3] and 41% in data set [5]. The solubility is > 174 µM in data set [2] and > 188 µM in data set [4]. Further, the Stability result in data set [6] is given as “Unstable”.

For `Cc1sc2c(c1C)C(c1ccc(Cl)cc1)=N[C@@H](CC(=O)NCCCN1CCC(c3ccc4c(c3)CN(C3CCC(=O)NC3=O)C4=O)CC1)c1nnc(C)n1-2` (stereo partly specified), the remaining at 1 µM was < 23% in data set [1], 27% in data set [3] and 34% in data set [5]. Moreover, the solubility in data set [2] is > 175 µM; in data set [4], > 185 µM.

As usually defined, the solubility is how much of the substance goes into solution per volume. Higher therefore signals a readily soluble substance.

Source of the values: ChEMBL document CHEMBL5376000, “One-Pot Synthesis of Cereblon Proteolysis Targeting Chimeras via Photoinduced C(sp2)-C(sp3) Cross Coupling and Amide Formation for Proteolysis Targeting Chimera Library Synthesis” (J Med Chem, 2023).
